# Measurements reported in PubChem BioAssay AID504542 (Sanford-Burnham Center for Chemical Genomics, 2011).
# Calls of active or inactive are those of the source. The rule behind the calls is not given here.
# Test system: S. cerevisiae TIM10 counterscreen strain, luminescence
# Experiment: TIM10 counterscreen strain luminescent signal reducers – S. cerevisiae, uHTS hits, counter-screen for tim10-1 inhibitor project, dose response (AID 504542)
row,Structure (SMILES),IC50
1,COc1ccc(Br)cc1[C@H]1[C@@H]2C=CCC[C@@]2(C)C(=O)N1Cc1ccccc1,6.12 µM
2,Cc1onc(-c2ccc3c(c2)OCO3)c1-c1ccc2[nH]ccc2c1,3.49 µM
3,O=C1CS(=O)(=O)N(Cc2cccc(F)c2)c2ccc(Br)cc21,4.69 µM
4,Nc1nc(-c2ccc(Br)cc2)cs1,10.4 µM
5,CN(CCCC(=O)O)c1ccc(N=Nc2ccc([N+](=O)[O-])cc2)cc1,14.5 µM
6,Cc1ccc(NC(=O)c2cc(S(=O)(=O)NCCC3=CCCCC3)ccc2F)cc1,12.3 µM
7,O=C(Nc1cccnc1)c1cn(-c2ccccc2)nc1-c1cccs1,8.73 µM
8,Cc1ccc(OCC(=O)O/N=C(\N)Cc2ccc(Cl)cc2)cc1,56.7 µM
9,COc1ccc(C(=O)Nc2ccc(-n3nncc3C(C)(C)C)cc2)cc1,6.59 µM
10,CC[C@@H]1CC=C[C@H]2[C@H]1C(=O)N(Cc1ccccc1)[C@H]2c1ccoc1,2.5 µM
11,O=C(OCn1ncc(Br)c(Br)c1=O)c1ccccc1Cl,1.41 µM
12,COc1ccc(/C(C)=N/NC(=S)NCCc2ccccc2)cc1,7.83 µM
13,Nc1nc(N)c(C=Nc2ccc(Br)cc2)c(Nc2ccc(Br)cc2)n1,10.8 µM
14,Fc1ccc(CNC(=S)Nc2cccc(C(F)(F)F)c2)cc1,8.8 µM
15,COc1ccc(/C(N)=N/OC(=O)c2ccc3c(c2)OCO3)cc1,4.94 µM
16,COc1ccc(-c2sc3cc4c(cc3c2C#CC2(N)CCCCC2)OCO4)cc1,8.21 µM
17,Cn1c(NCCCO)nc2c(c1=O)C1(CCCCC1)Cc1ccccc1-2,6.86 µM
18,O=c1oc2ccccc2c(O)c1/C=C1\C=Nc2ccccc21,6.1 µM
19,Nc1ccccc1C(=O)/C=C/c1ccc2c(c1)OCO2,5.88 µM
20,COc1ccc(-c2nncnn2)cc1,3.43 µM
21,Nc1c(C(=O)Nc2ccccc2)c2nc3ccccc3nc2n1CCCN1CCOCC1,9.74 µM

row,Structure (SMILES),IC50
1,Clc1ccc(CNc2nc(CN3CCOCC3)nc3scc(-c4ccccc4)c23)cc1,4.96 µM
2,COc1cc(OC)c(C(=O)O/N=C(\N)c2ccc(C)cc2)cc1OC,5.99 µM
3,CCOc1ccc(-n2cc(-c3ccccc3)c3c(=O)[nH]cnc32)cc1,5.89 µM
4,S=C(NCCCc1ccccc1)Nc1ccc(Cl)cc1,3.88 µM
5,C=CC(=O)Oc1ccc(N2Cc3ccccc3C2=O)cc1,2.89 µM
6,Clc1ccccc1OCc1nnc(-c2ccccc2Br)o1,16.6 µM
7,Cc1nc(Nc2ccccc2)sc1-c1ccccc1,3.09 µM
8,CCOc1ccccc1N1C(=O)CC(Sc2n[nH]c(-c3ccccc3)n2)C1=O (configuration not stated),2.27 µM
9,CC(C)CN(CC(C)C)C(=S)Nc1ccc(Cl)cc1,11 µM
10,Cc1ccc(/C(N)=N/OC(=O)C(C)c2ccc([N+](=O)[O-])cc2)cc1 (configuration not stated),22 µM
11,COc1cc(C(=O)Nc2ccc(Cl)c(C(F)(F)F)c2)cc(OC)c1OC,27.1 µM
12,CCOC(=O)c1c(OCC)[nH]c2c1cc(O)c1ccccc12,8.27 µM
13,O=c1c2ccccc2[se]n1-c1ccccc1,0.58 µM
14,c1ccc(Nc2cccc(Nc3ccccc3)n2)cc1,5.97 µM
15,CCCOc1ccccc1NC(=O)/C=C/C(N)=O,0.87 µM
16,O=C(NC(=S)NNC(=O)c1ccccc1[N+](=O)[O-])c1ccc(Br)cc1,6.64 µM
17,O=C(c1ccc2c3n(nc2c1)-c1ccccc1CO3)N1CCCCC1,8.99 µM
18,Cc1cccc(NC(=S)N/N=C2/CCCCc3ccccc32)c1,2.28 µM
19,CC(=O)N1CCN(c2cc(N3CCc4ccccc4C3)c(F)cc2[N+](=O)[O-])CC1,19.6 µM
20,O=C(N/N=C/c1ccc[nH]1)c1cc(-c2ccc(Cl)cc2)nc2ccccc12,4.98 µM
21,CN(C)CCCN(C(=O)c1cc2cc([N+](=O)[O-])ccc2s1)c1nc2cc3c(cc2s1)OCCO3,10.8 µM

row,Structure (SMILES),IC50
1,COc1ccc(NC2CCN(C3CC(=O)N(c4ccc(F)c(Cl)c4)C3=O)CC2)cc1 (configuration not stated),2.91 µM
2,CC(C)Nc1nnc(Sc2ccc(Cl)cc2[N+](=O)[O-])s1,2.28 µM
3,CCOC(=O)c1c(CSc2ccc(C)cc2)n(C)c2cc(Br)c(O)c(CN(C)C)c12,12.8 µM
4,CCOC(=O)c1ccc(N=c2ssnc2Cl)cc1,1.87 µM
5,CCSc1nc2ccccc2n1C(=O)/C=C\c1ccc(OC)c(OC)c1,7.72 µM
6,N/C(=N\OC(=O)CCC1CCCC1)c1ccccc1,16.8 µM
7,CC(C)c1nnc(NC(=O)CCS(=O)(=O)c2nc(-c3cccs3)cc(C(F)(F)F)n2)s1,4.84 µM
8,C/C(=N\NC(=S)NCc1ccccc1)c1ccc(Cl)s1,11.6 µM
9,CCOC(=O)/C=C/C(=O)OCC(=O)Nc1ccc([N+](=O)[O-])cc1,3.98 µM
10,NNc1nc(-c2ccccc2)c2cc(Br)ccc2n1,15.9 µM
11,CC(C)(C)OC(=O)N[C@@H](Cc1ccccc1)c1nnc(S(=O)(=O)Cc2cccc(F)c2)o1,1.19 µM
12,CCCCCCCCCCOC(=O)Cn1c(COc2ccccc2OC)[n+](C)c2ccccc21,8.06 µM
13,CC1=C/C(=N\OS(=O)(=O)c2ccccc2)C=CC1=O,0.26 µM
14,Cc1cc(C)c(CSc2ncc(-c3ccc([N+](=O)[O-])cc3)[nH]2)c(C)c1,10.1 µM
15,Cc1ccc(/C(N)=N/OC(=O)c2ccc3c(c2)OCO3)cc1,2.42 µM
16,N/C(=N\OC(=O)c1ccc(Cl)cc1)c1ccc(Cl)cc1,> 100 µM (inactive)
17,CCCOc1ccc(CN(CCC#N)C(=S)NC(=O)c2ccccc2)cc1,10.2 µM
18,N/C(=N\OC(=O)c1ccc(F)cc1)c1ccc(Br)cc1,> 100 µM (inactive)
19,Cc1ccccc1OCC(=O)Nc1ccc(S(=O)(=O)N2CCCC2)cc1,5.36 µM
20,COc1ccc2sc(N(CCCN(C)C)C(=O)c3ccc(S(=O)(=O)N4CCCc5ccccc54)cc3)nc2c1,8.76 µM
21,O=[N+]([O-])c1ccccc1N/N=C/c1c[nH]c2ccccc12,5.11 µM

row,Structure (SMILES),IC50
1,COc1ccc(-n2cc(-c3ccccc3)c3c(=S)nc[nH]c32)cc1,> 100 µM (inactive)
2,Cc1ccc(CNC(=O)c2ccc(Cn3nc(C)c(Cl)c3C)o2)cc1,10.1 µM
3,Cc1ccc(F)c([C@H]2[C@@H]3C=CCC[C@@]3(C)C(=O)N2Cc2ccccc2)c1,7.6 µM
4,O=C1C2C3C=CC(CO)(O3)C2C(=O)N1c1ccccc1-c1ccccc1 (configuration not stated),1.27 µM
5,Cc1ccc(F)c([C@H]2C3C=CCC(c4ccccc4)C3C(=O)N2Cc2ccccc2)c1 (some centres not stated),6.99 µM
6,N#C/C(=N/Nc1ccc(OC(F)(F)F)cc1)C(N)=S,1.22 µM
7,CCOC(=O)c1cc(-c2cccs2)nc2c1c(C)nn2-c1ccccn1,8.92 µM
8,O=C(NNC(=S)Nc1cccc(C(F)(F)F)c1)c1cccc(Cl)c1,9.48 µM
9,COc1ccc(C(=O)O/N=C(\N)c2ccccc2Cl)cc1OC,9.27 µM
10,Cc1ccc(NC2=C/C(=N\S(=O)(=O)c3cccs3)c3ccccc3C2=O)c(C)c1,3.94 µM
11,Cc1ccc(NC(=O)c2ccc(Cl)c(N3C(=O)C=CC3=O)c2)cc1,4.36 µM
12,COc1ccc(C(=O)O/N=C(\N)Cc2ccc(Cl)c(Cl)c2)cc1OC,0.8 µM
13,Cc1cccc(NC(=O)c2ccc([N+](=O)[O-])s2)n1,1.39 µM
14,CCCCNC(=S)N=Nc1c(O)[nH]c2ccccc12,3.19 µM
15,CC(C)C(c1nnnn1C1CCCC1)N1CCCc2ccccc21 (configuration not stated),5.94 µM
16,CCCOc1ccc(N2C(=O)CC(N3CCC(O)(c4cccc(C(F)(F)F)c4)CC3)C2=O)cc1 (configuration not stated),3.95 µM
17,O=C(c1cc(COc2ccc(F)cc2Cl)on1)N1CCN(c2cnccn2)CC1,3.98 µM
18,O=C(O)/C=C/C(=O)c1ccc2c(c1)CCc1ccccc1-2,3.32 µM
19,O=C(NC(=S)Nc1ccccc1N1CCCC1)c1ccc([N+](=O)[O-])cc1,8.53 µM
